According to patent publication US20040037806A1, “Aldosterone blocker therapy to prevent or treat inflammation-related disorders” (Pharmacia Corporation, priority 2002, published 2004):
Entries after “also recorded” stand apart in the source; their conditions may differ.

Experiments:
Format in all cases: in vivo, rat
[1] = Assay A: angiotensin II infusion model, systolic blood pressure by tail-cuff; conditions: Wistar rats, 1% NaCl to drink, angiotensin II 25 ng/min sc, 4 weeks; eplerenone 100 mpk; aldosterone given to adrenalectomized, dexamethasone-treated rats
cyclooxygenase-2 (COX-2) = experiment: Assay A: cyclooxygenase-2 immunostaining of hearts; conditions: angiotensin II-infused, saline-drinking Wistar rats, eplerenone 100 mpk, aldosterone replacement in adrenalectomized rats
[2] = Assay B: aldosterone infusion model, systolic blood pressure by radio-telemetry; conditions: uni-nephrectomized Sprague Dawley rats, 1% NaCl, aldosterone 0.75 mg/hr sc, 4 weeks, eplerenone 100 mpk p.o
Procedure: Assay B: In Vivo Aldosterone Infusion Model
Male Sprague Dawley rats (n=39; BW=250 g)
Uni-nephrectomy performed during implantation of mini-pumps
2. Aldosterone (0.75 mg/hr, sc via alzet minipump)
1. Aldosterone (0. 75 mg/hr, sc via alzet minipump)+0.6% KCl in the drinking fluid
Groups 1, 2 and 3 received only 0.3% KCl in the drinking solution
SBP measured by radio-telemetry probes inserted in the abdominal aorta

[3] = test system: Atrial natriuretic factor (ANP); experiment: Assay C: ANP mRNA in left ventricle, TaqMan; conditions: aldosterone+salt alone or with eplerenone 100 mg/kg/day; 7, 14, 30 days
Procedure: (§1) The procedure of Assay B was expanded upon in a further study. […] Myocardial tissue from animals in each treatment group was examined after 7, 14, or 30 days of treatment.
(§2) Potassium chloride supplementation was added to the saline solution in order to prevent the potential hypokalemia associated with aldosterone excess.
(§3) Treatment At the time of the surgery, an Alzet 2002 osmotic minipump (Alza Corp., Palo Alto, Calif.) containing either vehicle (9% ethanol/87% propylene glycol/4% dH2O) or 1.0 mg/mL d-aldosterone (Sigma Chemical, St. Louis, Mo.) was inserted subcutaneously at the nape of the neck. Aldosterone was administered at a dose of 0.75 µg/hour. […]
(§4) The fluorogenic 5′-nuclease assay (TaqMan PCR) using Applied Biosystems' 7700 Sequence Detection System (Applied Biosystems, Foster City, Calif.) allowed for real time detection/quantitation of a specific gene by monitoring the increase in fluorescence of a gene-specific, dye-labeled oligonucleotide probe. […] When the probe was annealed to the target gene, fluorescence of 6FAM was prevented by the close proximity of TAMRA. The exonuclease activity of Taq polymerase released the dyes from the oligonucleotide probe by displacing the probe from the target sequence resulting in fluorescence excitation in direct proportion to the amount of target message present. […]

Collagen I = experiment: Assay C: Collagen I mRNA, TaqMan; conditions: 30 days, compared to vehicle+salt controls
Procedure: as §1, §2, §3, §4

[4] = test system: Monocyte Chemoattractant Protein-1 (MCP-1); experiment: Assay C: MCP-1 mRNA, TaqMan; conditions: 7, 14, 30 days; aldosterone+salt alone or with eplerenone 100 mg/kg/day
Procedure: as §1, §2, §3, §4

SMILES | Systolic blood pressure [1] | Cyclooxygenase-2 expression in the heart (immunostaining) (cyclooxygenase-2 (COX-2)) | Systolic blood pressure [2] | Atrial natiuretic peptide (ANP) mRNA levels [3] | Collagen type-I message (Collagen I) | MCP-1 mRNA expression in myocardium [4] | Cyclooxygenase-2 expression in the heart (immunostaining) (cyclooxygenase-2 (COX-2); listed as Eplerenone) | Systolic blood pressure ([2]; listed as Eplerenone)
C[C@]12CCC(=O)C=C1CC[C@@H]1[C@@H]2[C@@H](O)C[C@]2(C=O)[C@@H](C(=O)CO)CC[C@@H]12 [aldosterone] | increased blood pressure | restored the presence of cycloxygenase-2 in coronary arteries | increased; also recorded: systolic blood pressure elevation | Significant elevations | modest increase | significantly increased |  | 
COC(=O)[C@@H]1CC2=CC(=O)CC[C@]2(C)[C@@]23O[C@@H]2C[C@@]2(C)[C@@H](CC[C@@]24CCC(=O)O4)[C@H]13 [eplerenone] | Neither eplerenone nor adrenalectomy reduced blood pressure | prevention by eplerenone of induction of COX-2 expression | depression of this elevation | significantly reduced by eplerenone after 30 days of treatment but not after 14 days | modest increase | significantly reduced; also recorded: inhibition of early time-course expression of myocardial MCP-1 | markedly reduced and in most cases completely prevented the expression of cycloxygenase-2 | significantly reduced, but did not normalize blood pressure
